Data as given in patent publication US5866717A, “Metalloproteinase inhibitors” (British Biotech Pharmaceuticals Limited, priority 1994, dated 1999).
Values after ≈ are worked out from the molar mass of the structure shown.

Experiments:
[1] = aqueous solubility; assay type: physicochemical; details: for solubility: water, read-out: Aq. solubility
[2] = molecular target: T1, Human fibroblast collagenase (Homo sapiens, UniProt P03956); assay: biochemical
T1 sequence (P03956 100-469): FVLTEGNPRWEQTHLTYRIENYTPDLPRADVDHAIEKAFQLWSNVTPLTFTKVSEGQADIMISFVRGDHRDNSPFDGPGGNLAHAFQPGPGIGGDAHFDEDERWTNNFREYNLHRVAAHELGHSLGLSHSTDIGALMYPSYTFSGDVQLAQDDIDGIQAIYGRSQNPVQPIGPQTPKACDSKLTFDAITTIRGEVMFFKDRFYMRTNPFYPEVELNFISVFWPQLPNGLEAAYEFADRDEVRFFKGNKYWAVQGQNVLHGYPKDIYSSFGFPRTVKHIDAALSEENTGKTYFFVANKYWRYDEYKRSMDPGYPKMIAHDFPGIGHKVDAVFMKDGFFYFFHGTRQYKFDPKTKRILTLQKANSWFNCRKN

[3] = molecular target: T2, Getatinase A (Homo sapiens, UniProt P08253); assay: biochemical
T2 sequence (P08253 110-660): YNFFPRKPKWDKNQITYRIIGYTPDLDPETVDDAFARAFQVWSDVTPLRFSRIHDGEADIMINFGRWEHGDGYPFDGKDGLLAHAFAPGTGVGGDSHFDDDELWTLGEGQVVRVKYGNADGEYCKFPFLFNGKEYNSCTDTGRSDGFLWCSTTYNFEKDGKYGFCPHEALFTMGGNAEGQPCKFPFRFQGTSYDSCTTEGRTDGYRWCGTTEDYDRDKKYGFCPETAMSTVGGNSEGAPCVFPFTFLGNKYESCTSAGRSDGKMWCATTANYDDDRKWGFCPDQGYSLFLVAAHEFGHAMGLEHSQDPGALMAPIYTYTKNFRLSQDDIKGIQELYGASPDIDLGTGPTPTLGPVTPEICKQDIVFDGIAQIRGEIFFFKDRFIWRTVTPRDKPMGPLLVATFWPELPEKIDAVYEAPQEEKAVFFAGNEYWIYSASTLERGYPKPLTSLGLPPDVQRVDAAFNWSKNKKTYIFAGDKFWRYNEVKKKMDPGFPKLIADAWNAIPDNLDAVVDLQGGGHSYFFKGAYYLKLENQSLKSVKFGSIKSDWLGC

[4] = molecular target: Stromelysin-1 (Homo sapiens, UniProt P08254); assay: biochemical
[5] = effective blood concentrations after oral administration; assay type: in vivo; details: no data given

Chain of Stromelysin-1 (P08254 100-477, species assumed): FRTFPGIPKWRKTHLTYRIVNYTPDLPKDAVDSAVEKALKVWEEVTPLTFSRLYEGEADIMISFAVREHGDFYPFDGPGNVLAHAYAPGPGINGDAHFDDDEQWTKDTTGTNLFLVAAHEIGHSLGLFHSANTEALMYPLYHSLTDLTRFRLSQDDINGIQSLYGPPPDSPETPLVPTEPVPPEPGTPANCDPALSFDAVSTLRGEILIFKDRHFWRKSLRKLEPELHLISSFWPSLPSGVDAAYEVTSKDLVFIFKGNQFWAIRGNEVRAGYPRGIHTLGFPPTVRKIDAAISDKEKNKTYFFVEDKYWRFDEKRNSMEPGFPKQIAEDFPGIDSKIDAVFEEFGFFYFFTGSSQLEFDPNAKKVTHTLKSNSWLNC

SMILES	solubility [1] [µg/mL]	IC50 [2] [nM]	IC50 [3] [nM]	IC50 [4] [nM]	aqueous solubility (in words) ([1]; presently preferred compound)	effective blood concentrations (in words) [5]
CNC(=O)[C@@H](NC(=O)[C@H](CC(C)C)[C@H](O)C(=O)NO)C(C)(C)C [Comparator 1, N^4-(2,2-Dimethyl-1S-methylcarbamoyl-propyl)-2S, N^1-dihydroxy-3R -isobutyl-succinamide, reference compound]	7700 (≈ 23200 µM)					
C=CC[C@H](C(=O)NO)[C@@H](CC(C)C)C(=O)N[C@H](C(=O)NC)C(C)(C)C [Comparator 2, 2S-Allyl-N^4-(2,2-Dimethyl-1S-methylcarbamoyl-propyl)-N^4-hydroxy-3R-isobutyl-succinamide, reference compound]	40 (≈ 113 µM)	4	15			
COCCOCOCCNC(=O)[C@@H](NC(=O)[C@H](CC(C)C)[C@H](O)C(=O)NO)C(C)(C)C [Example 1, 2S, N^1 -Dihydroxy-3R-isobutyl-N^4 -{1S-[2-(2-methoxy-ethoxymethoxy)-ethylcarbamoyl]-2,2-dimethyl-propyl}-succinamide]	≥ 29600	10	15	60		
C=CC[C@H](C(=O)NO)[C@@H](CC(C)C)C(=O)N[C@H](C(=O)NCC(C)(COC)COC)C(C)(C)C [Example 6, 2S-Allyl-N^4 -{1S-[2,2-di-(methoxymethyl)-propylcarbamoyl}-2,2-dimethyl-propyl]-N^1-hydroxy-3R-isobutyl-succinamide]	400 (≈ 848 µM)	20	30	50		
COCCOCCOCCNC(=O)[C@@H](NC(=O)[C@H](CC(C)C)[C@H](CSc1cccs1)C(=O)NO)C(C)(C)C [Example 9, N^4 -Hydroxy-2R-isobutyl-N^1-(1S{2-[2-(2-methoxy-ethoxy)-ethoxy]-ethylcarbamoyl}-2,2-dimethyl-propyl)-3S-(thiophen-2-yl-sulfanylmethyl)-succinamide]	400 (≈ 695 µM)	2	9	10		

Further lines, with some results ahead:

solubility [1] [µg/mL]	IC50 [2] [nM]	IC50 [3] [nM]	IC50 [4] [nM]	aqueous solubility (in words) ([1]; presently preferred compound)	SMILES	effective blood concentrations (in words) [5]
180 (≈ 406 µM)	1	20	40		CNC(=O)[C@@H](NC(=O)[C@H](CC(C)C)C(CSc1cccs1)C(=O)NO)C(C)(C)C (stereo partly drawn) [Comparator 3, N^1-(2,2-Dimethyl-1S-methylcarbamoyl-propyl)-N^4-hydroxy-2R -isobutyl-3-(thiophen-2-yl-sulfanylmethyl)-succinamide, reference compound]	
4700 (≈ 10600 µM)	1	7	40	good aqueous solubility	C=CC[C@H](C(=O)NO)[C@@H](CC(C)C)C(=O)N[C@H](C(=O)NCCOCCOC)C(C)(C)C [Example 4, 2S-Allyl-N^1-hydroxy-3R-isobutyl-N^4 -{1S-[2-(2-methoxy-ethoxy)-ethylcarbamoyl]-2,2-dimethyl-propyl}-succinamid]	high and prolonged effective blood concentrations
